US10118935B2, “Melampomagnolide B dimers” (priority 2014, dated 2018)

Experiments:
SF-295 = assay: NCI 60 cell line five dose, CNS Cancer
PC-3 = assay: NCI 60 cell line five dose, Prostate Cancer
HS 578T = assay: NCI 60 cell line five dose, Breast Cancer; settings: HS578T
HT29 = assay: NCI 60 cell line five dose, Colon Cancer
SW-620 = assay: NCI 60 cell line five dose, Colon Cancer
OVCAR-5 = assay: NCI 60 cell line five dose, Ovarian Cancer
CCRF-CEM = assay: NCI 60 cell line five dose, Leukemia
NCI-H23 = assay: NCI 60 cell line five dose, Non-Small Cell Lung Cancer
MDA-MB-468 = assay: NCI 60 cell line five dose, Breast Cancer
A498 = assay: NCI 60 cell line five dose, Renal Cancer
RPMI-8226 = assay: NCI 60 cell line five dose, Leukemia
BT-549 = assay: NCI 60 cell line five dose, Breast Cancer

SMILES: C=C1C(=O)O[C@H]2[C@H]1CC/C(COC(=O)NCCCCCCCCNC(=O)OC/C1=C/CC[C@@]3(C)O[C@H]3[C@H]3OC(=O)C(=C)[C@@H]3CC1)=C\CC[C@@]1(C)O[C@@H]21 [JVM 3-62, bis(((1aR,7aS, 10aS, 10bS, E)-1a-Methyl-8-methylene-9-oxo-1a,2,3,6,7,7a,8,9,10a,10b-decahydrooxireno[2′,3′:9,10]cyclodeca[1,2-b]furan-5-yl)methyl)octane-1,8-diyldicarbamate]
- Percent Growth (SF-295; Log10 Concentration −4.0): −87%
- Percent Growth (SF-295; Log10 Concentration −5.0): −40%
- Percent Growth (SF-295; Log10 Concentration −6.0): 87%
- Percent Growth (SF-295; Log10 Concentration −7.0): 92%
- Percent Growth (SF-295; Log10 Concentration −8.0): 85%
- GI50 (SF-295; molar): 1950 nM
- TGI (SF-295; molar): 4.82E−6
- CC50 (SF-295; read-out: LC50, molar): 16200 nM
- Percent Growth (PC-3; Log10 Concentration −4.0): −91%
- Percent Growth (PC-3; Log10 Concentration −5.0): −78%
- Percent Growth (PC-3; Log10 Concentration −6.0): 21%
- Percent Growth (PC-3; Log10 Concentration −7.0): 91%
- Percent Growth (PC-3; Log10 Concentration −8.0): 91%
- GI50 (PC-3; molar): 385 nM
- TGI (PC-3; molar): 1.63E−6
- CC50 (PC-3; read-out: LC50, molar): 5200 nM
- Percent Growth (HS 578T; Log10 Concentration −4.0): −26%
- Percent Growth (HS 578T; Log10 Concentration −5.0): −5%
- Percent Growth (HS 578T; Log10 Concentration −6.0): 54%
- Percent Growth (HS 578T; Log10 Concentration −7.0): 90%
- Percent Growth (HS 578T; Log10 Concentration −8.0): 94%
- GI50 (HS 578T; molar): 1170 nM
- TGI (HS 578T; molar): 8.25E−6
- CC50 (HS 578T; read-out: LC50, molar): > 100000 nM
- Percent Growth (HT29; Log10 Concentration −4.0): −84%
- Percent Growth (HT29; Log10 Concentration −5.0): −80%
- Percent Growth (HT29; Log10 Concentration −6.0): −33%
- Percent Growth (HT29; Log10 Concentration −7.0): 97%
- Percent Growth (HT29; Log10 Concentration −8.0): 100%
- GI50 (HT29; molar): 228 nM
- CC50 (HT29; read-out: LC50, molar): 2270 nM
- Percent Growth (SW-620; Log10 Concentration −4.0): −77%
- Percent Growth (SW-620; Log10 Concentration −5.0): −79%
- Percent Growth (SW-620; Log10 Concentration −6.0): −18%
- Percent Growth (SW-620; Log10 Concentration −7.0): 91%
- Percent Growth (SW-620; Log10 Concentration −8.0): 91%
- GI50 (SW-620; molar): 239 nM
- TGI (SW-620; molar): 6.86E−7
- CC50 (SW-620; read-out: LC50, molar): 3370 nM
- Percent Growth (OVCAR-5; Log10 Concentration −4.0): −77%
- Percent Growth (OVCAR-5; Log10 Concentration −5.0): −80%
- Percent Growth (OVCAR-5; Log10 Concentration −6.0): −4%
- Percent Growth (OVCAR-5; Log10 Concentration −7.0): 91%
- Percent Growth (OVCAR-5; Log10 Concentration −8.0): 92%
- GI50 (OVCAR-5; molar): 269 nM
- TGI (OVCAR-5; molar): 9.12E−7
- CC50 (OVCAR-5; read-out: LC50, molar): 4040 nM
- Percent Growth (CCRF-CEM; Log10 Concentration −4.0): −44%
- Percent Growth (CCRF-CEM; Log10 Concentration −5.0): −45%
- Percent Growth (CCRF-CEM; Log10 Concentration −6.0): −8%
- Percent Growth (CCRF-CEM; Log10 Concentration −7.0): 89%
- Percent Growth (CCRF-CEM; Log10 Concentration −8.0): 99%
- GI50 (CCRF-CEM; molar): 255 nM
- CC50 (CCRF-CEM; read-out: LC50, molar): > 100000 nM
- Percent Growth (NCI-H23; Log10 Concentration −4.0): −78%
- Percent Growth (NCI-H23; Log10 Concentration −5.0): −85%
- Percent Growth (NCI-H23; Log10 Concentration −6.0): 27%
- Percent Growth (NCI-H23; Log10 Concentration −7.0): 100%
- Percent Growth (NCI-H23; Log10 Concentration −8.0): 100%
- GI50 (NCI-H23; molar): 485 nM
- TGI (NCI-H23; molar): 1.74E−6
- CC50 (NCI-H23; read-out: LC50, molar): 4860 nM
- Percent Growth (MDA-MB-468; Log10 Concentration −4.0): −70%
- Percent Growth (MDA-MB-468; Log10 Concentration −5.0): −81%
- Percent Growth (MDA-MB-468; Log10 Concentration −6.0): −43%
- Percent Growth (MDA-MB-468; Log10 Concentration −7.0): 86%
- Percent Growth (MDA-MB-468; Log10 Concentration −8.0): 100%
- GI50 (MDA-MB-468; molar): 190 nM
- TGI (MDA-MB-468; molar): 4.62E−7
- CC50 (MDA-MB-468; read-out: LC50, molar): 1500 nM
- Percent Growth (A498; Log10 Concentration −4.0): −83%
- Percent Growth (A498; Log10 Concentration −5.0): −91%
- Percent Growth (A498; Log10 Concentration −6.0): 91%
- Percent Growth (A498; Log10 Concentration −7.0): 104%
- Percent Growth (A498; Log10 Concentration −8.0): 94%
- GI50 (A498; molar): 1690 nM
- TGI (A498; molar): 3.14E−6
- CC50 (A498; read-out: LC50, molar): 5830 nM
- Percent Growth (RPMI-8226; Log10 Concentration −4.0): −38%
- Percent Growth (RPMI-8226; Log10 Concentration −5.0): −45%
- Percent Growth (RPMI-8226; Log10 Concentration −6.0): −13%
- Percent Growth (RPMI-8226; Log10 Concentration −7.0): 92%
- Percent Growth (RPMI-8226; Log10 Concentration −8.0): 98%
- GI50 (RPMI-8226; molar): 250 nM
- TGI (RPMI-8226; molar): 7.45E−7
- CC50 (RPMI-8226; read-out: LC50, molar): > 100000 nM
- Percent Growth (BT-549; Log10 Concentration −4.0): −85%
- Percent Growth (BT-549; Log10 Concentration −5.0): −80%
- Percent Growth (BT-549; Log10 Concentration −6.0): −14%
- Percent Growth (BT-549; Log10 Concentration −7.0): 94%
- Percent Growth (BT-549; Log10 Concentration −8.0): 94%
- GI50 (BT-549; molar): 257 nM
